Legend:
Format in all cases: in vivo, human
[1] = tested on: severe asthma exacerbations in childhood asthmatics; assay: Childhood Asthma Management Program: baseline serum 25(OH)D and outcomes in childhood asthmatics on inhaled corticosteroid
Text: We measured 25(OH)D levels in stored serum (collected on entry into the trial) from 305 childhood asthmatics who were randomized to the inhaled corticosteroid arm of the multi-center Childhood Asthma Management Program. We then analyzed baseline 25(OH)D levels for their association with severe asthma exacerbations (defined as emergency room visits or hospitalizations for asthma) over the course of the 4-year trial.

[2] = tested on: any wheeze in the first 2 yrs; assay: Project Viva antioxidant study: maternal intake and any wheeze in the first 2 yrs; conditions: for Any wheeze in the first 2 yrs, Univariate Model OR (95% CI) / Any wheeze in the first 2 yrs, Multivariable Model OR (95% CI): including supplements; for Any Wheeze, Foods Only OR / Any Wheeze, Supplements Only OR: univariate; for Any Wheeze, Foods Only OR: intake from foods only; for Any Wheeze, Supplements Only OR: intake from supplements only; for Association of total maternal intake with any wheeze in univariable models: total intakes
Text: (§1) Study subjects were enrolled in Project Viva, as described above. Recruitment and retention procedures have previously been published (Gillman et al., J. Pediatr. 144:240-245, 2004). We obtained information directly from participants and from medical records as detailed previously (Rifas-Shiman, Paediatr. Perinat. Epidemiol. 20:35-42, 2006). Data collected from interviews and questionnaires included demographics (infant gender, maternal marital status, and race), socioeconomic status (education and household income), and reproductive history (maternal gravidity, pre-pregnancy height and body mass index, and smoking). Questionnaires that inquired about infant health, feeding, and the home environment were administered when the child was 6 months, 1 year, and 2 years of age. Among 2,128 delivered infants in Project Viva, we excluded 228 participants because of missing first and second trimester diet assessment data and an additional 37 participants with a gestation of less than 34 completed weeks.
(§2) We assessed maternal diet using semi-quantitative food-frequency questionnaires (FFQ) validated for use during pregnancy (Fawzi et al., Ann. Epidemiol. 14:754-762, 2004), and used in several of our previous studies of maternal diet and offspring outcomes (Oken et al., Am. J. Epidemiol. 160:774-783, 2004; Huh et al., Int. J. Epidemiol. 34:378-384, 2005; Gillman et al., Circulation 110:1990-1995, 2004). As noted above, the FFQ used at the 1st visit reflected intakes in the 1st trimester; the time referent was “during this pregnancy,” that is from the date of the last menstrual period until the assessment, at an average of about 10 weeks gestation. To assess vitamin and supplement intake during the 1st trimester, we administered a separate interview that queried dose, duration, and brand/type of multivitamin, prescribed prenatal vitamins, and supplements. Also as noted above, the FFQ used at the 2nd visit (26 to 28 weeks of gestation) reflected intakes during the 2nd trimester; the time referent was “during the past 3 months.” The 2nd trimester instrument was the same as that for the 1st trimester except that we assessed use of vitamins/supplements as part of the self-completed FFQ.
(§3) To calculate intake of nutrients, we again used the Harvard nutrient composition database, which contains food composition values from the U.S. Department of Agriculture, supplemented by other data sources (U.S. Department of Agriculture ARS. USDA National Nutrient Database for Standard Reference, Release 14, 5R14; 2001). All nutrients were adjusted for total energy intake using the nutrient residuals method (Willett, Am. J. Clin. Nutr. 45:354-360, 1987). Mean nutrient intakes from the 1st and 2nd trimesters were used as the exposure in the analyses. If a participant only completed one FFQ, then nutrients calculated from that questionnaire were taken as the exposure of interest. One thousand one hundred and thirty-five (88.0%) of the 1,290 participants completed both FFQs, 96 (7.4%) completed the first trimester FFQ only, and 59 (4.6%) completed the second trimester FFQ only.
(§4) We ascertained the wheeze outcomes from questions from the First Year and Second Year Questionnaires: “since your child was born/since your child was […], has he/she ever had wheezing (or whistiling in the chest)?” “Any wheeze” was defined as a positive response to the question at either the first or second year questionnaire. “Recurrent wheeze” was defined as positive responses to the questions in both the first and second year questionnaires. […] “Respiratory infections” was defined as positive responses to one of three questions: “since your child was born/12 months old, have you been told by a health care professional (such as a doctor, physician assistant, or nurse practitioner) that your child has: (a) bronchiolitis; (b) pneumonia; (c) bronchitis, croup, or any other respiratory infection?” on either the first or second year questionnaires. […]

[3] = tested on: recurrent wheeze in the first 2 yrs; assay: Project Viva antioxidant study: maternal intake and recurrent wheeze in the first 2 yrs; conditions: for Recurrent wheeze in the first 2 yrs, Multivariable Model OR (95% CI) / Recurrent wheeze in the first 2 yrs, Univariate Model OR (95% CI): including supplements; for Recurrent Wheeze, Foods Only OR / Recurrent Wheeze, Supplements Only OR: univariate; for Recurrent Wheeze, Foods Only OR: intake from foods only; for Recurrent Wheeze, Supplements Only OR: intake from supplements only
Text: as §1, §2, §3, §4

[4] = tested on: respiratory infections in the 2-year old children; assay: Project Viva antioxidant study: maternal intake and respiratory infections in 2-year old children
Text: as §1
We assessed maternal diet using semi-quantitative food-frequency questionnaires (FFQ) validated for use during pregnancy (Fawzi et al., Ann. Epidemiol. 14:754-762, 2004), and used in several of our previous studies of maternal diet and offspring outcomes (Oken et al., Am. J. Epidemiol. 160:774-783, 2004; Huh et al., Int. J. Epidemiol. 34:378-384, 2005; Gillman et al., Circulation 110:1990-1995, 2004). As noted above, the FFQ used at the 1st visit reflected intakes in the 1st trimester; the time referent was “during this pregnancy,” that is from the date of the last menstrual period until the assessment, at an average of about 10 weeks gestation. […] Also as noted above, the FFQ used at the 2nd visit (26 to 28 weeks of gestation) reflected intakes during the 2nd trimester; the time referent was “during the past 3 months.” The 2nd trimester instrument was the same as that for the 1st trimester except that we assessed use of vitamins/supplements as part of the self-completed FFQ. […]

[5] = 2nd vs 1st (lowest) quartile of maternal intake, calorie adjusted, n = 1,161
[6] = 2nd vs 1st (lowest) quartile of maternal intake
[7] = 3rd vs 1st (lowest) quartile of maternal intake
[8] = 4th (highest) vs 1st (lowest) quartile of maternal intake
[9] = 4th (highest) vs 1st (lowest) quartile of maternal intake, listed as zinc
[10] = 4th (highest) vs 1st (lowest) quartile
[11] = 2nd vs 1st (lowest) quartile of maternal intake, n = 1,038

Compound | Any wheeze in the first 2 yrs, Univariate Model OR (95% CI) [2, 5] | Any wheeze in the first 2 yrs, Multivariable Model OR (95% CI) [2, 6] | Any wheeze in the first 2 yrs, Multivariable Model OR (95% CI) [2, 7] | Any wheeze in the first 2 yrs, Univariate Model OR (95% CI) [2, 7] | Any wheeze in the first 2 yrs, Multivariable Model OR (95% CI) [2, 8] | Any wheeze in the first 2 yrs, Univariate Model OR (95% CI) [2, 8] | Association of total maternal intake with any wheeze in univariable models [2] | Recurrent wheeze in the first 2 yrs, Multivariable Model OR (95% CI) [3, 6] | Recurrent wheeze in the first 2 yrs, Univariate Model OR (95% CI) [3, 11] | Recurrent wheeze in the first 2 yrs, Multivariable Model OR (95% CI) [3, 7] | Recurrent wheeze in the first 2 yrs, Univariate Model OR (95% CI) [3, 7] | Recurrent wheeze in the first 2 yrs, Multivariable Model OR (95% CI) [3, 8] | Recurrent wheeze in the first 2 yrs, Univariate Model OR (95% CI) [3, 8] | Association of total maternal intake with respiratory infections in the children [4] | also measured
25-Hydroxyvitamin D [25(OH)D] |  |  |  |  |  |  |  |  |  |  |  |  |  |  | Association with lung function, bronchodilator response, or airway responsiveness ([1]; 305 childhood asthmatics on inhaled corticosteroid): no associations; OR, severe asthma exacerbations over the course of the 4-year trial ([1]; children with 25(OH)D levels ≦30 ng/ml, on inhaled corticosteroid, adjusted for age, sex, height, baseline FEV1): 1.76
[Zn] [Zinc, zinc] | 0.77 (0.55, 1.08) | 0.89 (0.61, 1.29) | 0.85 (0.59, 1.24) | 0.67 (0.47, 0.94)^5 | 0.59 (0.41, 0.88)^5 | 0.49 (0.34, 0.70)^5 | associated with lower risks | 0.61 (0.35, 1.06) | 0.56 (0.34, 0.92) | 0.89 (0.53, 1.49) | 0.73 (0.46, 1.17) | 0.49 (0.27, 0.87) | 0.41 (0.24, 0.69)^5 | not associated | Any Wheeze, Foods Only OR ([2]; 2nd vs 1st (lowest) quartile): 0.85; Any Wheeze, Supplements Only OR ([2]; 2nd vs 1st (lowest) quartile): 0.98; Any Wheeze, Foods Only OR ([2]; 3rd vs 1st (lowest) quartile): 0.60; Any Wheeze, Supplements Only OR ([2]; 3rd vs 1st (lowest) quartile): 0.67; Any wheeze in the first 2 yrs, Multivariable Model OR (95% CI) [2, 9]: 0.59; Any Wheeze, Foods Only OR [2, 10]: 0.60; Any Wheeze, Supplements Only OR [2, 10]: 0.63; Recurrent Wheeze, Foods Only OR ([3]; 2nd vs 1st (lowest) quartile): 0.70; Recurrent Wheeze, Supplements Only OR ([3]; 2nd vs 1st (lowest) quartile): 0.94; Recurrent Wheeze, Foods Only OR ([3]; 3rd vs 1st (lowest) quartile): 0.65; Recurrent Wheeze, Supplements Only OR ([3]; 3rd vs 1st (lowest) quartile): 0.59; Recurrent wheeze in the first 2 yrs, Multivariable Model OR (95% CI) [3, 9]: 0.49; Recurrent Wheeze, Foods Only OR [3, 10]: 0.68; Recurrent Wheeze, Supplements Only OR [3, 10]: 0.51
O=C1O[C@H]([C@@H](O)CO)C(O)=C1O [Vitamin C, ascorbic acid] | 0.82 (0.58, 1.15) | 0.93 (0.65, 1.35) | 0.84 (0.58, 1.22) | 0.65 (0.46, 0.93)^5 | 0.79 (0.54, 1.15) | 0.67 (0.47, 0.94)^5 | associated with lower risks | 1.05 (0.62, 1.77) | 1.02 (0.63, 1.65) | 1.04 (0.60, 1.78) | 0.85 (0.52, 1.40) | 0.75 (0.41, 1.36) | 0.56 (0.32, 0.97)^5 | not associated | 
